ChEMBL document CHEMBL1201862, “PubChem BioAssay data set” (2004)
Calls of active or inactive are those of the source.

How the values were obtained:
Beta-galactosidase = Beta-galactosidase (Escherichia coli, UniProt Q8VNN2); assay: PubChem AID 485352; type: functional
[1] = target: T1, Type-1 angiotensin II receptor (Homo sapiens, UniProt P30556); assay: AT1 receptor antagonists, dose response, selectivity assay for APJ receptor antagonist project, cell-based, uHTS hits (AID 463214); type: functional;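 also: antagonist potency against angiotensin II stimulated AT1 response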
T1 sequence (P30556 whole entry): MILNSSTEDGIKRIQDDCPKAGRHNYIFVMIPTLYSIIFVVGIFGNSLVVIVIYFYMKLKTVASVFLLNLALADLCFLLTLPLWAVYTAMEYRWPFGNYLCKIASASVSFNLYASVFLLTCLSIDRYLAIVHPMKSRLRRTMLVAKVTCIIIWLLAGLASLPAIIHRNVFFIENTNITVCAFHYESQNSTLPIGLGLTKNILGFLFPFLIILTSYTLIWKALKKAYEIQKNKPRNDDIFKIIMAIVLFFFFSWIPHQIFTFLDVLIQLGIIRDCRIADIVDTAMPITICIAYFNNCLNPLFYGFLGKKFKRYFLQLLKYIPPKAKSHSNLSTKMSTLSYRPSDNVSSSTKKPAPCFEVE

[2] = target: Peroxisome proliferator-activated receptor gamma/Nuclear receptor coactivator 1 (Homo sapiens, UniProt P37231); assay: (§1) TR-FRET dose response biochemical High Throughput Screening assay for agonists of the steroid receptor coactivator 1 (SRC-1) recruitment by the peroxisome proliferator-activated receptor gamma (PPAR gamma): non-selective agonists. [Related pubchem assays (depositor defined):AID1300, AID1808, AID504735, AID631]; type: protein assay
Peroxisome proliferator-activated receptor gamma/Nuclear receptor coactivator 1, sequence (P37231 whole entry): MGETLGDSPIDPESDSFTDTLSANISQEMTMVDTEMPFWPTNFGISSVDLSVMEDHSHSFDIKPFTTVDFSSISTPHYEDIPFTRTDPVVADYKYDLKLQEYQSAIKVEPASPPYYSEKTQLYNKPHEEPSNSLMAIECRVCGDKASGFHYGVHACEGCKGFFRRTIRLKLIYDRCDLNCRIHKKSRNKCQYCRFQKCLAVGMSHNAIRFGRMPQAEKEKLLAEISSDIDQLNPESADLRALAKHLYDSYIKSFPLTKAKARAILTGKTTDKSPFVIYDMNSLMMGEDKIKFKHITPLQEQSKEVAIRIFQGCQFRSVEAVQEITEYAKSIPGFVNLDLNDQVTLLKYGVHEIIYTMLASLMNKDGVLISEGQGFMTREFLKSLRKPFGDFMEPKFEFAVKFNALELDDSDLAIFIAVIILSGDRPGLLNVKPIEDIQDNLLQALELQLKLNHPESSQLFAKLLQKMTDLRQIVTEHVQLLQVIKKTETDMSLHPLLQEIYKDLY
Peroxisome proliferator-activated receptor gamma/Nuclear receptor coactivator 1, sequence (Q15788 whole entry, further chain): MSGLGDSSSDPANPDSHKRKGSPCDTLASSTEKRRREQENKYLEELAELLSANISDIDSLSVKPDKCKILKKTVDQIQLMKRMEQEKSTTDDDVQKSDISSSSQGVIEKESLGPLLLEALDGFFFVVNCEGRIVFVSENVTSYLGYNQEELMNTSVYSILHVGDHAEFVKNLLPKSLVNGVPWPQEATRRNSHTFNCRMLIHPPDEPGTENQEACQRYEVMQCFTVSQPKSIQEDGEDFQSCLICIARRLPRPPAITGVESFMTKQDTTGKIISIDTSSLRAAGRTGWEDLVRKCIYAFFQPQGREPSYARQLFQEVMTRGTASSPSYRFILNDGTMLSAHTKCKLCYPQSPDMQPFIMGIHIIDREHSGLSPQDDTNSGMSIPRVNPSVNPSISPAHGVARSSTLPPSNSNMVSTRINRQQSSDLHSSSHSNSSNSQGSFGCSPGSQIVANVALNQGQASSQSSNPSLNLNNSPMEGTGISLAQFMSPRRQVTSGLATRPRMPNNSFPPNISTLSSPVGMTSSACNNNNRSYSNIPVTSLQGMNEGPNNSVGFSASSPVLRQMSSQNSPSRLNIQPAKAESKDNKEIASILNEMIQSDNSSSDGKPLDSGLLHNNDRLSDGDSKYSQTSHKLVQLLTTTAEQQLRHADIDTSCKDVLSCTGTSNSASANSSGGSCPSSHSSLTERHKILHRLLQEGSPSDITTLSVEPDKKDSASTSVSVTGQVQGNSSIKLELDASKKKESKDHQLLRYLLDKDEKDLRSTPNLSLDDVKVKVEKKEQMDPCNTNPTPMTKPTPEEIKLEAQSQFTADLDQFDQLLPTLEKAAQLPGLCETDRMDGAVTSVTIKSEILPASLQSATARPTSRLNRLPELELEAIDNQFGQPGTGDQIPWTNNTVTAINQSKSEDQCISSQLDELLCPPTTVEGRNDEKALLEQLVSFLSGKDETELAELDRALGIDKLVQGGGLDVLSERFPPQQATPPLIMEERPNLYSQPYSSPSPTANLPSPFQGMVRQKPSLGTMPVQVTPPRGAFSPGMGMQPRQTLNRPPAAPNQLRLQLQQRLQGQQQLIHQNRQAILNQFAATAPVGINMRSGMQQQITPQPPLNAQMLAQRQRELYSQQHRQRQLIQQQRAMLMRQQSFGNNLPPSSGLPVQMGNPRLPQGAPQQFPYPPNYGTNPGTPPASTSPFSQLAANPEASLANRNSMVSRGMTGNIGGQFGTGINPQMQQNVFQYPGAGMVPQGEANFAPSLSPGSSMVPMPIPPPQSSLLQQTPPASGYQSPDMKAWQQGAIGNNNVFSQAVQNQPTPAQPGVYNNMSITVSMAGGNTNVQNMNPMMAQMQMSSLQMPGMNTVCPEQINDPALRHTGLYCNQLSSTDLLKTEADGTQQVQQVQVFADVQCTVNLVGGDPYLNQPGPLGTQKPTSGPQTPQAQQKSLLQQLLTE

[3] = target: Peroxisome proliferator-activated receptor gamma/Nuclear receptor coactivator 3 (Homo sapiens, UniProt P37231); assay: as §1, with “3 (SRC-3)” for “1 (SRC-1)”, “assays: 1301 (Confirmation screen.), 1048 (Primary screen.)]” for “assays (depositor defined):AID1300, AID1808, AID504735, AID631]”; type: functional
[4] = target: Peroxisome proliferator-activated receptor gamma/Nuclear receptor coactivator 2 (Homo sapiens, UniProt P37231); assay: TR-FRET dose response biochemical High Throughput Screening assay for agonists of the steroid receptor coactivator 2 (SRC-2) recruitment by the peroxisome proliferator-activated receptor gamma (PPAR gamma): non-selective agonists. [Related pubchem assays: 1297, 1032 ]; type: functional
Peroxisome proliferator-activated receptor gamma/Nuclear receptor coactivator 2, sequence (P37231 whole entry): as the sequence (P37231 whole entry) above
Peroxisome proliferator-activated receptor gamma/Nuclear receptor coactivator 2, sequence (Q15596 whole entry, further chain): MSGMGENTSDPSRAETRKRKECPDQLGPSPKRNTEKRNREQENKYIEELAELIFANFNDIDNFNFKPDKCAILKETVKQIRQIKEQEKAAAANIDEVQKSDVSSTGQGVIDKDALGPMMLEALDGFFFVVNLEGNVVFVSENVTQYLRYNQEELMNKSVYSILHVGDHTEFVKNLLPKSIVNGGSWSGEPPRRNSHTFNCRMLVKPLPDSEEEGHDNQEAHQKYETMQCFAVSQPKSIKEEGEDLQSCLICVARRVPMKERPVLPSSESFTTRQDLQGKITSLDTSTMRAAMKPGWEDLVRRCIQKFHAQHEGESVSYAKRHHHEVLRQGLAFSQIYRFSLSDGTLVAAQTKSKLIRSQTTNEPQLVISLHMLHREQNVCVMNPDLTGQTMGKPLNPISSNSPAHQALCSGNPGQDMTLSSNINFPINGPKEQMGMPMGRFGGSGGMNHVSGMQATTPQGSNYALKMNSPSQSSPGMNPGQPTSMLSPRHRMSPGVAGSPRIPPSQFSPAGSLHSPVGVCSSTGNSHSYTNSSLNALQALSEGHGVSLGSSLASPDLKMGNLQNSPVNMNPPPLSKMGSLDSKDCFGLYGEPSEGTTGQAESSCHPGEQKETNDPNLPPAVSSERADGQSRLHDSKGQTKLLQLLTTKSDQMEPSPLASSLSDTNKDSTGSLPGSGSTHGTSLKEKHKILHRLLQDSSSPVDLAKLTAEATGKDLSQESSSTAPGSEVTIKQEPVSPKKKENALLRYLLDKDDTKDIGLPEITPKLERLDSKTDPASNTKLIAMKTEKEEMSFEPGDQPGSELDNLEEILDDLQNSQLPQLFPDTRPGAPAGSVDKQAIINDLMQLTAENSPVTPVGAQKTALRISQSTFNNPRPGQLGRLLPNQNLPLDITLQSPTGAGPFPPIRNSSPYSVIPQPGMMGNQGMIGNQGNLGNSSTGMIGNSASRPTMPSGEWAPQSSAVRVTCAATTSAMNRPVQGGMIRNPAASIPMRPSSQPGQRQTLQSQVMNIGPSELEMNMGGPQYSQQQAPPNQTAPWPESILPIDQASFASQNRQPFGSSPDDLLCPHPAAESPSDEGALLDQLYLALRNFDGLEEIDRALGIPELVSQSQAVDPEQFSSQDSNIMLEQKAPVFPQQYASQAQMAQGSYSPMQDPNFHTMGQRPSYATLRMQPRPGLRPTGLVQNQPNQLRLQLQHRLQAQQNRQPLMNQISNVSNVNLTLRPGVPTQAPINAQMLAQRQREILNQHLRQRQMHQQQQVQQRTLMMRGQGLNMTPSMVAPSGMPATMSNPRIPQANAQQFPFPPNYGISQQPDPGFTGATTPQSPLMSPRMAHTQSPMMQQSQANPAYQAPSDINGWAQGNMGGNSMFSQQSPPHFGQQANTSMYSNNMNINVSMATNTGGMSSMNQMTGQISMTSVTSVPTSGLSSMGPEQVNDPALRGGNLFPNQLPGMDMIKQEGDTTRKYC

[5] = target: T2, Short transient receptor potential channel 4 (Mus musculus, UniProt Q9QUQ5); assay: mouse TRPC4 channel inhibitors, dose response, cell-based, HEK293 TRPC4/mu-opioid, Fluo-4 calcium (AID 434942); type: functional;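 also: potency of inhibitors blocking the TRPC4 calcium response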
T2 sequence (Q9QUQ5 whole entry): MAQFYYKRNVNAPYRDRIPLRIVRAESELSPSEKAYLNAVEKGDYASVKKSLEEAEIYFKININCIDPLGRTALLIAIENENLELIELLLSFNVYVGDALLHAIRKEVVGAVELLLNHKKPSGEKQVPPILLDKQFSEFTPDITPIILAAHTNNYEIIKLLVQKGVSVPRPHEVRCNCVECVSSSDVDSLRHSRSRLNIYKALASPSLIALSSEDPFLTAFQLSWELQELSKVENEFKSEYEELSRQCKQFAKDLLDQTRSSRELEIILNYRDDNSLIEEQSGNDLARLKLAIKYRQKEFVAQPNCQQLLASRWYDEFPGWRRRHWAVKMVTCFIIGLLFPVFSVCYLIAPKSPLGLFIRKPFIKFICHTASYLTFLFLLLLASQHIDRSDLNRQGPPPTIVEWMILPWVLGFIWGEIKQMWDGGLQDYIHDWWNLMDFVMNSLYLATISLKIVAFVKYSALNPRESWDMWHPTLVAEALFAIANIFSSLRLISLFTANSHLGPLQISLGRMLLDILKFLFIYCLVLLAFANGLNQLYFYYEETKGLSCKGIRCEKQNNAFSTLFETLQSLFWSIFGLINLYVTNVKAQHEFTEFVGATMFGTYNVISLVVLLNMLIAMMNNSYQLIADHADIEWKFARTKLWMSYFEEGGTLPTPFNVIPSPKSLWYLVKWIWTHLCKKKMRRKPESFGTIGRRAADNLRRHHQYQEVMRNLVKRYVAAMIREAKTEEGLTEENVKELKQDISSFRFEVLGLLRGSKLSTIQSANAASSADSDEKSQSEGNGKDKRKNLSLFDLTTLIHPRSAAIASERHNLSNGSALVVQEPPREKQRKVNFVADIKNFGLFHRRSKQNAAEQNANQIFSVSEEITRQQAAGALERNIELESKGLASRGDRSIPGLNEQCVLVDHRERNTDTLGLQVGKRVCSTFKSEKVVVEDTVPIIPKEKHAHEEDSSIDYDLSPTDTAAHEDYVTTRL

[6] = target: DNA (cytosine-5)-methyltransferase 1 (Homo sapiens, UniProt P26358); assay: DNMT1 methyltransferase inhibitors, confirmation, biochemical, fluorescent molecular beacon (AID 602386); type: functional
[7] = target: T3, Ubiquitin-conjugating enzyme E2 N (Homo sapiens, UniProt P61088); type: functional;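 also: Dose-response confirmation in a TR-FRET assay detecting UBC13-driven polyubiquitin chain formation, inhibition measured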
T3 sequence (P61088 whole entry): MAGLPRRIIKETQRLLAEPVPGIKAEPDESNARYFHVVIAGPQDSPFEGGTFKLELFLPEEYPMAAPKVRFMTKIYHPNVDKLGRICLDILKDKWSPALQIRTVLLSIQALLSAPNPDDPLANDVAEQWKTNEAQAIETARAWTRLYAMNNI

Cytochrome P450 2C19 = Cytochrome P450 2C19 (Homo sapiens, UniProt P33261); assay: Cytochrome panel assay with activity outcomes. Panel member name: p450-cyp2c19 Compounds with AC50 equal or less than 10 uM are considered active; type: functional
BJ [8] = assay: cytotoxicity toward BJ-TERT fibroblasts, dose response, cell-based, RAS-independent, luminescence (AID 1933); type: functional; details: Homo sapiens
BJ [9] = assay: cells; type: functional, cell-based; details: Homo sapiens
BJ [10] = assay: cytotoxicity toward BJ-TERT-LT-ST fibroblasts, dose response, cell-based, RAS-independent, luminescence (AID 1935); type: functional; details: Homo sapiens;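 also: BJ fibroblasts immortalized with TERT plus LT and ST oncogenes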
[11] = cytotoxicity toward DRD oncogenic fibroblasts, dose response, cell-based, non-viral oncogenic, luminescence (AID 1934); type: functional; details: Homo sapiens
[12] = target: T4, DNA repair and recombination protein RAD54-like (Homo sapiens, UniProt Q92698); assay: inhibitors of human RAD54 branch migration, confirmation, biochemical, fluorescence, cherry-picked samples, dose series (AID 651657); type: functional
T4 sequence (Q92698 whole entry): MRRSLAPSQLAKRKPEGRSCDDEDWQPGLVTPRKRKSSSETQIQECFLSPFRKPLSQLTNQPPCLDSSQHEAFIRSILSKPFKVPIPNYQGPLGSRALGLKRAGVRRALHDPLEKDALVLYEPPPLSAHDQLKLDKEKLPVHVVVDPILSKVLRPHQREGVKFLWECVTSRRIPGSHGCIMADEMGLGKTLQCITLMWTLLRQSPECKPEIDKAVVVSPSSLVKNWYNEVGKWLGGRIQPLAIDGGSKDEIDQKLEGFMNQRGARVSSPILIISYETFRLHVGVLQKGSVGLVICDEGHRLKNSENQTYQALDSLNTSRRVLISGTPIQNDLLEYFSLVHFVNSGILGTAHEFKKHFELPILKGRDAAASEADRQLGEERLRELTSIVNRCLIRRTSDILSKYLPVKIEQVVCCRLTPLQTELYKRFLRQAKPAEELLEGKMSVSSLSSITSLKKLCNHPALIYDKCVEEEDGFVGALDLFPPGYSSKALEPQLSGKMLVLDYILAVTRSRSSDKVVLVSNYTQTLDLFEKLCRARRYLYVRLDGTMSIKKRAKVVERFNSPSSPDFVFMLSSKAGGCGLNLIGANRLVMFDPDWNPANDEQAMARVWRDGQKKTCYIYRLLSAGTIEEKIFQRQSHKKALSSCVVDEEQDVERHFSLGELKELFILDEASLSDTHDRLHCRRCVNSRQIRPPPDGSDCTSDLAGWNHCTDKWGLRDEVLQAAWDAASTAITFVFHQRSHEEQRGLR

[13] = system: Streptococcus sp. 'group A'; assay: growth inhibition of control SK(-) GAS strain, dose response, counter-screen for streptokinase expression inhibitor project, luminescence, kanamycin, BacTiterGlo, confirmation (AID 1900); type: functional, organism-based
Streptococcus = assay: Group A Streptococcus viability loss, dose response, counter-screen for streptokinase expression inhibitor project, luminescence, BacTiterGlo (AID 1915); type: functional, organism-based;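 also: potency for reduction of bacterial viability or growth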
[14] = target: T5, Microphthalmia-associated transcription factor (Homo sapiens, UniProt O75030); assay: TRPM1 promoter luciferase signal decrease, dose response, MITF inhibitor project, cell-based, SK-MEL-5, cherry-picked, set 3 (AID 493073); type: functional
T5 sequence (O75030 whole entry): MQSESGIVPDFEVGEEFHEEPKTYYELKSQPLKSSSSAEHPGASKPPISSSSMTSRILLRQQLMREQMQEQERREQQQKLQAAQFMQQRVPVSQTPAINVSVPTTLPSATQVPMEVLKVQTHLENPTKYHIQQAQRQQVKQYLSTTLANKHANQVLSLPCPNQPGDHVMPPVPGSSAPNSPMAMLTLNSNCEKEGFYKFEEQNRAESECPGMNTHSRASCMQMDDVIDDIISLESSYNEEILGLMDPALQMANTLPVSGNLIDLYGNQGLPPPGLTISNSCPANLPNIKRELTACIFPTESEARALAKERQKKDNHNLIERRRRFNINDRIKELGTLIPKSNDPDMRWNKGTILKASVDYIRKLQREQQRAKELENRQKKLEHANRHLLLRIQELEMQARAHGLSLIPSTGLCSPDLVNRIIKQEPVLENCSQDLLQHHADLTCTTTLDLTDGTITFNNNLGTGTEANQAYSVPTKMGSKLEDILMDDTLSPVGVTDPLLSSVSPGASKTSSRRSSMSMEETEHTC

INS1 = assay: beta cell apoptosis inhibitors, cytokine rescue, dose response, luminescence, retest (AID 449756); type: functional, cell-based; details: Rattus norvegicus;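 also: cell death triggered by IL-1 beta plus TNF-alpha plus IFN-gamma mixture; protective hits raise ATP signal compared with cytokine alone wells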
[15] = inhibitors of intracellular T. cruzi replication, confirmation, NIH3T3 host cells, beta-gal luminescence (AID 2044); type: functional, cell-based;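 also: intracellular parasites grown in NIH/3T3 mouse fibroblasts as host cells; luminescent beta-galactosidase reporter signal from transgenic T. cruzi replicating inside host cells; inhibitors lower the luminescence signal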
[16] = cytotoxicity toward NIH3T3 fibroblasts, dose response, counter-screen, cell-based, ATP luminescence, mouse fibroblasts (AID 2010); type: functional;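 also: cells exposed to compound for about 90 hours before reading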

Beta-galactosidase, sequence (Q8VNN2 whole entry): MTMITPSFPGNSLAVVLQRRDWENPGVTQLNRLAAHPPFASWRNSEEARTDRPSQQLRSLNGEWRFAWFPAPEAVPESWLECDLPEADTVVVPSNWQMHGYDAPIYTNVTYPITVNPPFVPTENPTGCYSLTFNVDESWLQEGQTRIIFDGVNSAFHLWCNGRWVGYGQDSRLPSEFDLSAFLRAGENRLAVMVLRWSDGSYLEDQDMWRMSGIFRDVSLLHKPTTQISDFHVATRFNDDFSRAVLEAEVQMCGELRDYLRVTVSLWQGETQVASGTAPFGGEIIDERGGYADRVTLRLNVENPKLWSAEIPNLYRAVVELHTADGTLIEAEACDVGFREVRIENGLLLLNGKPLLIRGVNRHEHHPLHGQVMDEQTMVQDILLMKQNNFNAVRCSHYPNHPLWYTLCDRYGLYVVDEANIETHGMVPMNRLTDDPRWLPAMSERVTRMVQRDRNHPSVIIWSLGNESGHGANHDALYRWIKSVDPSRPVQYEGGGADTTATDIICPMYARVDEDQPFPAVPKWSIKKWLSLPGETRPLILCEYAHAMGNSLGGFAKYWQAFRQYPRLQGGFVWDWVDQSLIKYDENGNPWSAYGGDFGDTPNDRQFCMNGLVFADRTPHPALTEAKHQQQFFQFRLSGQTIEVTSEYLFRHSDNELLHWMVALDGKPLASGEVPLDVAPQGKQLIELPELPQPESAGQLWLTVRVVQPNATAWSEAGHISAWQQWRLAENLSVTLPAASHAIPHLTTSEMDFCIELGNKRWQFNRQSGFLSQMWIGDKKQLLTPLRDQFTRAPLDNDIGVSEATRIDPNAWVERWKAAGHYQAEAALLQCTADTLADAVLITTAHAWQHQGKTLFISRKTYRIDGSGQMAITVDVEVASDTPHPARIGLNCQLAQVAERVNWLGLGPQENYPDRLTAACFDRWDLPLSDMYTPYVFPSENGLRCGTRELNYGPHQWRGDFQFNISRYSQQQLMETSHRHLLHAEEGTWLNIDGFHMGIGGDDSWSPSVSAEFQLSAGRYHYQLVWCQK

Row | EC50 (Beta-galactosidase) | IC50 [1] | EC50 [2] | EC50 [3] | EC50 [4] | Compound | also measured
1 | > 40 µM (inactive) | 5.7 µM (active) |  |  |  | Cc1ccc(NCC(=O)c2ccccc2)cc1Cl | 
2 |  |  | 42.2 µM (inactive) | > 79.4 µM (not active) | 29.1 µM (not active) | OCC1(CCc2ccccc2)CCN(Cc2ccc3nsnc3c2)CC1 | EC50 [5]: 8.41 µM (active)
3 |  |  |  |  |  | O=C(c1ccc(=O)oc1)N1CCOCC1 | IC50 [6]: 3.67 µM (active)
4 |  |  | > 79.4 µM (inactive) | > 79.4 µM (not active) | > 79.4 µM (not active) | Cn1c(=O)cc(SCC(=O)N2CCCC2)c2ccccc21 | 
5 |  |  | > 79.4 µM (inactive) | > 79.4 µM (not active) | > 79.4 µM (not active) | CCc1cc2c(=O)n(-c3ccccc3)c(=S)[nH]c2s1 | IC50 [7]: > 20 µM (inactive); AC50 (Cytochrome P450 2C19): inconclusive
6 | > 40 µM (inactive) | 33.2 µM (not active) |  |  |  | Cc1ccc2c(c1)C(=O)C(=O)N2c1ccc(Cl)cc1 | 
7 |  |  | 27.8 µM (inactive) | > 79.4 µM (not active) | 24 µM (not active) | COc1ccc(CC(=O)Nc2ccc(-c3nc4cc(C)ccc4o3)c(O)c2)cc1OC | 
8 |  |  |  |  |  | Cc1cc[n+](CC(=O)c2cccc([N+](=O)[O-])c2)c2ccccc12 | EC50 (BJ [8]): 25.1 µM (active); EC50 (BJ [9]): > 150 µM (not active); EC50 (BJ [10]): > 150 µM (inconclusive); EC50 [11]: > 150 µM (not active); IC50 [6]: > 99 µM (inactive)
9 |  |  |  |  |  | CN1CCC(N(C)c2nc(-c3ccccc3)nc3ccccc23)CC1 | AC50 [12]: 18.1 µM (active)
10 |  |  |  |  |  | CCCN1CCN(CCCNC(=O)c2cc3c(=O)n(C)c4ccccc4c3n2C)CC1 | AC50 [12]: 34.7 µM (active)
11 | > 40 µM (inactive) | 7.99 µM (active) |  |  |  | S=C(N/N=C/c1ccc(Cl)cc1)N1CCOCC1 | 
12 |  |  |  |  |  | COc1ccc2nc(C)cc(Nc3ccc(N4CCOCC4)cc3)c2c1 | EC50 [15]: 1.79 µM (active); EC50 [16]: 27 µM (active); AC50 [12]: 17.4 µM (active)

Row | Compound | EC50 (Beta-galactosidase) | IC50 [1] | EC50 [2] | EC50 [3] | EC50 [4] | also measured
13 | C/C(=N\NC(=O)COc1ccccc1-c1ccccc1)c1ccccn1 | > 40 µM (inactive) | 3.73 µM (active) |  |  |  | EC50 [13]: 1.05 µM (active); EC50 (Streptococcus): 4.08 µM (active); AC50 [14]: 4.58 µM (active); AC50 (INS1): 1.32 µM (active)
